Measurements taken from PMC4586589 (The Journal of General Physiology, 2015).

Biological target: T1, ELIC (Erwinia chrysanthemi ligand-gated ion channel) (Dickeya chrysanthemi, UniProt P0C7B7)
T1 sequence (P0C7B7 1-321): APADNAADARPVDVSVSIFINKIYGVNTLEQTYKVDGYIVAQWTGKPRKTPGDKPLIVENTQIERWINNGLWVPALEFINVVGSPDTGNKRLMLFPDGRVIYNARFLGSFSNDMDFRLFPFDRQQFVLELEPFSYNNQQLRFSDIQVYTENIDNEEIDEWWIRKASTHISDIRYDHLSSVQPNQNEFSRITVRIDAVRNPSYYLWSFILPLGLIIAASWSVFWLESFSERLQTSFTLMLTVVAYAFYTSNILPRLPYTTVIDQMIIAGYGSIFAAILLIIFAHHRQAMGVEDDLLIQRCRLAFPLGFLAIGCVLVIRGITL
Assay: ITC
Assay type: cell-based

EC50: 10.02 ± 0.05 mM
SMILES: NCCCO [3-AP, 3-amino propanol]
